What was measured:
pigweed = assay: Test B pre/postemergence pigweed; format: in vivo, Amaranthus retroflexus
Method in brief: (§1)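 Herbicidal effect was estimated by eye on a ten-point control scale after plants spent twelve to sixteen days in a greenhouse following soil or foliar treatment. Foliar sprays targeted plants at one to four leaves; all doses were formulated in a non-phytotoxic solvent with surfactant.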

giant foxtail = assay: Test B pre/postemergence giant foxtail; format: in vivo, Setaria faberii
Method in brief: as §1

rape = assay: Test B pre/postemergence rape; format: in vivo, Brassica napus
Method in brief: as §1

duck salad = assay: Test B flood test duck salad; format: in vivo, Heteranthera limosa
Method in brief: (§2)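 Each value is a visual injury score relative to controls, with 10 meaning complete control and 0 no effect. Evaluation took place twelve to sixteen days after the 2-leaf-stage plants were treated and kept in the greenhouse.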

bedstraw = assay: Test B pre/postemergence bedstraw; format: in vivo, Galium aparine; conditions: Postemergence, Rate 125 g/ha; scale of 0 to 10 where 0 is no effect and 10 is complete control
Method in brief: as §1

cocklebur = assay: Test B pre/postemergence cocklebur; format: in vivo, Xanthium strumarium
Method in brief: as §1

rice = assay: Test B flood test rice; format: in vivo, Oryza sativa
Method in brief: as §2

velvetleaf = assay: Test B pre/postemergence velvetleaf; format: in vivo, Abutilon theophrasti
Method in brief: as §1

bamyardgrass = assay: Test B flood test barnyardgrass; format: in vivo, Echinochloa crus-galli
Method in brief: as §2

crabgrass = assay: Test B pre/postemergence crabgrass; format: in vivo, Digitaria sanguinalis
Method in brief: as §1

wild oat = assay: Test B pre/postemergence wild oat; format: in vivo, Avena fatua
Method in brief: as §1

morningglory = assay: Test B pre/postemergence morningglory; format: in vivo, Ipomoea hederacea
Method in brief: as §1

purple nutsedge = assay: Test B pre/postemergence purple nutsedge; format: in vivo, Cyperus rotundus
Method in brief: as §1

blackgrass = assay: Test B pre/postemergence blackgrass; format: in vivo, Alopecurus myosuroides
Method in brief: as §1

wheat = assay: Test B pre/postemergence wheat; format: in vivo, Triticum aestivum
Method in brief: as §1

corn = assay: Test B pre/postemergence corn; format: in vivo, Zea mays
Method in brief: as §1

soybean = assay: Test B pre/postemergence soybean; format: in vivo, Glycine max
Method in brief: as §1

surinam grass = assay: Test B pre/postemergence surinam grass; format: in vivo, Brachiaria decumbens
Method in brief: as §1

smallflower flatsedge = assay: Test B flood test smallflower flatsedge; format: in vivo, Cyperus difformis
Method in brief: as §2

sugar beet = assay: Test B pre/postemergence sugar beet; format: in vivo, Beta vulgaris
Method in brief: as §1

[1] = Postemergence, Rate 62 g/ha, scale 0 to 10, 0 is no effect, 10 is complete control
[2] = Postemergence, Rate 125 g/ha, scale of 0 to 10 where 0 is no effect and 10 is complete control
[3] = Preemergence, Rate 62 g/ha, scale of 0 to 10 where 0 is no effect and 10 is complete control
[4] = Preemergence, Rate 125 g/ha, scale of 0 to 10 where 0 is no effect and 10 is complete control
[5] = Preemergence, Rate 250 g/ha, scale 0 to 10 (0 no effect, 10 complete control)
[6] = Preemergence, Rate 500 g/ha, scale of 0 to 10 where 0 is no effect and 10 is complete control
[7] = Rate 500 g/ha, Postemergence, scale 0 to 10, 0 is no effect, 10 is complete control
[8] = Postemergence, Rate 250 g/ha, scale of 0 to 10, 0 is no effect, 10 is complete control
[9] = Rate 62 g/ha, flood test species, Pre-emergence, visual evaluation after twelve to sixteen days
[10] = Rate 125 g/ha, under heading Pre-emergence, flood test species, visual evaluation after twelve to sixteen days
[11] = Rate 250 g/ha, Pre-emergence (flood test species), scale 0 to 10, 0 is no effect, 10 is complete control
[12] = Rate 500 g/ha, Pre-emergence section of Table B, 0 to 10 scale (0 no effect, 10 complete control)

SMILES: CC[C@H](C)n1c(=O)on(C(=O)N(c2ccc(F)cc2F)C(C)C)c1=O [Compound 666]
- Plant response rating, Redroot pigweed (pigweed; [1]): 0
- Redroot pigweed plant response rating (pigweed; [2]): 1
- Redroot pigweed plant response rating (pigweed; [3]): 8
- Redroot pigweed plant response rating (pigweed; [4]): 10
- Plant response rating, Redroot pigweed (pigweed; [5]): 10
- Plant response rating, Redroot pigweed (pigweed; [6]): 10
- Redroot pigweed plant response rating (pigweed; [7]): 6
- Plant response rating, Giant foxtail (giant foxtail; [1]): 2
- Giant foxtail plant response rating (giant foxtail; [2]): 8
- Giant foxtail plant response rating (giant foxtail; [8]): 8
- Giant foxtail plant response rating (giant foxtail; [3]): 9
- Giant foxtail plant response rating (giant foxtail; [4]): 10
- Plant response rating, Giant foxtail (giant foxtail; [5]): 10
- Plant response rating, Giant foxtail (giant foxtail; [6]): 10
- Giant foxtail plant response rating (giant foxtail; [7]): 9
- Plant response rating, Rape (rape; [1]): 0
- Rape plant response rating (rape; [2]): 0
- Rape plant response rating (rape; [3]): 0
- Rape plant response rating (rape; [4]): 8
- Plant response rating, Rape (rape; [5]): 10
- Plant response rating, Rape (rape; [6]): 10
- Rape plant response rating (rape; [7]): 4
- Plant response rating, Ducksalad (0 to 10 scale, 0 is no effect, 10 is complete control) (duck salad; [9]): 0
- Ducksalad plant response rating (0 to 10 scale, 0 is no effect, 10 is complete control) (duck salad; [10]): 0
- Ducksalad plant response rating (duck salad; [11]): 0
- Ducksalad plant response rating (duck salad; [12]): 0
- Bedstraw plant response rating (bedstraw): 0
- Plant response rating, Cocklebur (cocklebur; [1]): 0
- Cocklebur plant response rating (cocklebur; [2]): 1
- Cocklebur plant response rating (cocklebur; [8]): 4
- Cocklebur plant response rating (cocklebur; [3]): 0
- Cocklebur plant response rating (cocklebur; [4]): 0
- Plant response rating, Cocklebur (cocklebur; [5]): 0
- Plant response rating, Cocklebur (cocklebur; [6]): 0
- Cocklebur plant response rating (cocklebur; [7]): 7
- Plant response rating, Rice (0 to 10 scale, 0 is no effect, 10 is complete control) (rice; [9]): 0
- Rice plant response rating (0 to 10 scale, 0 is no effect, 10 is complete control) (rice; [10]): 0
- Rice plant response rating (rice; [11]): 0
- Rice plant response rating (rice; [12]): 0
- Plant response rating, Velvetleaf (velvetleaf; [1]): 0
- Velvetleaf plant response rating (velvetleaf; [2]): 2
- Velvetleaf plant response rating (velvetleaf; [3]): 5
- Velvetleaf plant response rating (velvetleaf; [4]): 6
- Plant response rating, Velvetleaf (velvetleaf; [5]): 7
- Plant response rating, Velvetleaf (velvetleaf; [6]): 8
- Velvetleaf plant response rating (velvetleaf; [7]): 6
- Plant response rating, Barnyardgrass (0 to 10 scale, 0 is no effect, 10 is complete control) (bamyardgrass; [9]): 0
- Barnyardgrass plant response rating (0 to 10 scale, 0 is no effect, 10 is complete control) (bamyardgrass; [10]): 0
- Barnyardgrass plant response rating (bamyardgrass; [11]): 0
- Barnyardgrass plant response rating (bamyardgrass; [12]): 5
- Plant response rating, Crabgrass (crabgrass; [1]): 3
- Crabgrass plant response rating (crabgrass; [2]): 9
- Crabgrass plant response rating (crabgrass; [8]): 9
- Crabgrass plant response rating (crabgrass; [3]): 7
- Crabgrass plant response rating (crabgrass; [4]): 8
- Plant response rating, Crabgrass (crabgrass; [5]): 9
- Plant response rating, Crabgrass (crabgrass; [6]): 10
- Crabgrass plant response rating (crabgrass; [7]): 9
- Plant response rating, Wild oats (wild oat; [1]): 0
- Wild oats plant response rating (wild oat; [2]): 0
- Wild oats plant response rating (wild oat; [3]): 5
- Wild oats plant response rating (wild oat; [4]): 6
- Plant response rating, Wild oats (wild oat; [5]): 9
- Plant response rating, Wild oats (wild oat; [6]): 9
- Wild oats plant response rating (wild oat; [7]): 3
- Plant response rating, Morningglory (morningglory; [1]): 0
- Morningglory plant response rating (morningglory; [2]): 1
- Morningglory plant response rating (morningglory; [8]): 7
- Morningglory plant response rating (morningglory; [3]): 0
- Morningglory plant response rating (morningglory; [4]): 0
- Plant response rating, Morningglory (morningglory; [5]): 0
- Plant response rating, Morningglory (morningglory; [6]): 3
- Morningglory plant response rating (morningglory; [7]): 7
- Plant response rating, Nutsedge (purple nutsedge; [1]): 0
- Nutsedge plant response rating (purple nutsedge; [2]): 0
- Nutsedge plant response rating (purple nutsedge; [3]): 0
- Plant response rating, Nutsedge (purple nutsedge; [5]): 0
- Nutsedge plant response rating (purple nutsedge; [7]): 0
- Plant response rating, Blackgrass (blackgrass; [1]): 6
- Blackgrass plant response rating (blackgrass; [2]): 8
- Blackgrass plant response rating (blackgrass; [8]): 8
- Blackgrass plant response rating (blackgrass; [3]): 6
- Blackgrass plant response rating (blackgrass; [4]): 8
- Plant response rating, Blackgrass (blackgrass; [5]): 9
- Plant response rating, Blackgrass (blackgrass; [6]): 10
- Blackgrass plant response rating (blackgrass; [7]): 8
- Plant response rating, Wheat (wheat; [1]): 0
- Wheat plant response rating (wheat; [2]): 0
- Wheat plant response rating (wheat; [3]): 0
- Wheat plant response rating (wheat; [4]): 3
- Plant response rating, Wheat (wheat; [5]): 4
- Plant response rating, Wheat (wheat; [6]): 7
- Wheat plant response rating (wheat; [7]): 3
- Plant response rating, Corn (corn; [1]): 0
- Corn plant response rating (corn; [2]): 0
- Corn plant response rating (corn; [8]): 0
- Corn plant response rating (corn; [3]): 0
- Corn plant response rating (corn; [4]): 4
- Plant response rating, Corn (corn; [5]): 8
- Plant response rating, Corn (corn; [6]): 10
- Corn plant response rating (corn; [7]): 0
- Plant response rating, Soybean (soybean; [1]): 4
- Soybean plant response rating (soybean; [2]): 4
- Soybean plant response rating (soybean; [3]): 0
- Soybean plant response rating (soybean; [4]): 0
- Plant response rating, Soybean (soybean; [5]): 3
- Plant response rating, Soybean (soybean; [6]): 4
- Plant response rating, B. signalgrass (surinam grass; [1]): 0
- Plant response rating, B. signalgrass (surinam grass; [2]): 4
- B. signalgrass plant response rating (surinam grass; [8]): 5
- B. signalgrass plant response rating (surinam grass; [3]): 2
- B. signalgrass plant response rating (surinam grass; [4]): 3
- Plant response rating, B. signalgrass (surinam grass; [5]): 7
- Plant response rating, B. signalgrass (surinam grass; [6]): 8
- B. signalgrass plant response rating (surinam grass; [7]): 7
- Plant response rating, S. Flatsedge (0 to 10 scale, 0 is no effect, 10 is complete control) (smallflower flatsedge; [9]): 0
- S. Flatsedge plant response rating (0 to 10 scale, 0 is no effect, 10 is complete control) (smallflower flatsedge; [10]): 0
- S. Flatsedge plant response rating (smallflower flatsedge; [11]): 0
- S. Flatsedge plant response rating (smallflower flatsedge; [12]): 0
- Plant response rating, Sugarbeets (sugar beet; [1]): 0
- Sugarbeets plant response rating (sugar beet; [2]): 0
- Sugarbeets plant response rating (sugar beet; [3]): 0
- Sugarbeets plant response rating (sugar beet; [4]): 4
- Plant response rating, Sugarbeets (sugar beet; [5]): 7
- Plant response rating, Sugarbeets (sugar beet; [6]): 8
- Sugarbeets plant response rating (sugar beet; [7]): 4

Source: patent publication US6737383B1, “Herbicidal oxadiazolidines” (priority 1999, dated 2004)
